Like-named read-outs stand apart in the source and are kept apart here. One block for each compound: values may come before it.
Target: T1, Androgen Receptor (Homo sapiens, UniProt P10275)
T1 construct: endogenous in cells; host or cells: VCaP cells
T1 sequence (P10275 1-920): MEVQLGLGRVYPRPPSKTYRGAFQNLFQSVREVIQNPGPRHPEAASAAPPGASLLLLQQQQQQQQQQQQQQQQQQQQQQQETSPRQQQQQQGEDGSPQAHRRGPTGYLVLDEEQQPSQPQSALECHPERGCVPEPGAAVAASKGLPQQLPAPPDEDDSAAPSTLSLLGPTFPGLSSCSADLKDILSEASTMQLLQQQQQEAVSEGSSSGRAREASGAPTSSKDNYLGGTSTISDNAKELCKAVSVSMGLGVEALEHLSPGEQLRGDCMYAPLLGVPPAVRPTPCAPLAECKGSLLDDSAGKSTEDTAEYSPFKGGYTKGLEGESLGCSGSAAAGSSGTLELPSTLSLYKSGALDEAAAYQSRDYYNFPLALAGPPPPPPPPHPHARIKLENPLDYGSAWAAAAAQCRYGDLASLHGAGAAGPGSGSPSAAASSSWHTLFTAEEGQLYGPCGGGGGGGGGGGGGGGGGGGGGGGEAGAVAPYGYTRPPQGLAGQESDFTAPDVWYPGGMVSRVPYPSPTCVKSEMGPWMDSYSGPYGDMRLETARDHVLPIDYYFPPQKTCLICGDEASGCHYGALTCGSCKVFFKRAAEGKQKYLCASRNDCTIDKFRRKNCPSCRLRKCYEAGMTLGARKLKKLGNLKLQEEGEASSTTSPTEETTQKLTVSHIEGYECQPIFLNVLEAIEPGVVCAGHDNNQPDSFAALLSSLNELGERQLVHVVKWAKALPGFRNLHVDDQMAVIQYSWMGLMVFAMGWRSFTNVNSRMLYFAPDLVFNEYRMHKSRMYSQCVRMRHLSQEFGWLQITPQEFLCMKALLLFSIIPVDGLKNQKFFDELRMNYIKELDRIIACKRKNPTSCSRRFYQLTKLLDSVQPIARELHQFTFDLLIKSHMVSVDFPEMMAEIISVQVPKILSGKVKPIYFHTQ
Test: Androgen Receptor ELISA assay (PathScan AR ELISA) in VCaP cells: AR degradation, Dmax and DC50
Type: cell-based
In short: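 After 24 h exposure of VCaP cells (charcoal-stripped serum, 0.1 nM R1881 agonist, 0.1% DMSO) to seven half-log compound concentrations, residual AR in lysates was measured by PathScan ELISA (TMB absorbance, 450 nm). Cells were plated at 30,000/well and grown at least 3 days beforehand.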

[1] = VCaP cells; Table 36; read-out: VCaP DC50
[2] = read-out: VCaP DC50; concentration that caused 50% Androgen Receptor degradation, VCaP cells
[3] = VCaP cells; Table 35; read-out: VCaP DC50
[4] = VCaP, VCaP cells; Table 35; read-out: VCaP Dmax (%)
[5] = VCaP, VCaP cells; Table 36; read-out: VCaP Dmax (%)

Compound: Cc1ncsc1-c1ccc([C@@H](NC(=O)[C@@H]2C[C@@H](O)CN2C(=O)[C@@H](NC(=O)CN2CCN(CCCc3ccc(C(=O)N[C@H]4C(C)(C)[C@H](Oc5ccc(C#N)c(C(F)(F)F)c5)C4(C)C)cc3)CC2)C(C)(C)C)C2COC2)cc1 [Example 713, (2S,4R)-1-((S)-2-(2-(4-(3-(4-(((1r,3r)-3-(4-cyano-3-(trifluoromethyl)phenoxy)-2,2,4,4-tetramethylcyclobutyl)carbamoyl)phenyl)propyl)piperazin-1-yl)acetamido)-3,3-dimethylbutanoyl)-4-hydroxy-N-((S)-(4-(4-methylthiazol-5-yl)phenyl)(oxetan-3-yl)methyl)pyrrolidine-2-carboxamide]
DC50 [1]: < 0.05 µM | Dmax (VCaP, read-out: VCaP Dmax (%)): < 25%

Compound: Cc1ncsc1-c1ccc([C@H](C)NC(=O)[C@@H]2C[C@@H](O)CN2C(=O)[C@H](C(C)C)n2cc(OCCCOCCC(O)CCOc3ccc(N4C(=S)N(c5ccc(C#N)c(C(F)(F)F)c5)C(=O)C4(C)C)cc3)cn2)cc1 (stereo partly shown) [Example 419]
Dmax (VCaP, read-out: VCaP Dmax (%)): 26 to 50% | DC50 (read-out: VCaP DC50; VCaP cells; Table 35): < 0.05 µM

Compound: Cc1ncoc1-c1ccc(CNC(=O)[C@@H]2C[C@@H](O)CN2C(=O)[C@@H](NC(=O)COCCCOCCCCOc2ccc(N3C(=S)N(c4ccc(C#N)c(Cl)c4)C(=O)C3(C)C)cc2F)C(C)(C)C)cc1 [Example 44, (2S,4R)-1-[(2S)-2-{2-[3-(4-{4-[3-(3-chloro-4-cyanophenyl)-5,5-dimethyl-4-oxo-2-sulfanylideneimidazolidin-1-yl]-2-fluorophenoxy}butoxy)propoxy]acetamido}-3,3-dimethylbutanoyl]-4-hydroxy-N-{[4-(4-methyl-1,3-oxazol-5-yl)phenyl]methyl}pyrrolidine-2-carboxamide]
Dmax (VCaP, read-out: VCaP Dmax (%)): > 71% | DC50 [2]: < 0.05 µM

DC50 [3]: < 0.05 µM | Dmax [4]: > 71%
Compound: Cc1ncsc1-c1ccc([C@H](C)NC(=O)[C@@H]2C[C@@H](OC(=O)C(C)C)CN2C(=O)[C@@H](NC(=O)COCCCCCNc2ccc(C(=O)N[C@H]3C(C)(C)[C@H](Oc4ccc(C#N)c(Cl)c4)C3(C)C)cc2)C(C)(C)C)cc1 [Example 468]

DC50 [3]: < 0.05 µM | Dmax [4]: > 71%
Compound: C[C@H](NC(=O)[C@@H]1C[C@@H](O)CN1C(=O)[C@@H](NC(=O)COCCCCCNc1ccc(C(=O)N[C@H]2C(C)(C)[C@H](Oc3ccc(C#N)c(Cl)c3)C2(C)C)cc1)C(C)(C)C)c1ccc(C#N)cc1 [Example 541]

DC50 (VCaP cells; Table 34; read-out: VCaP DC50): < 0.05 µM | Dmax (VCaP, VCaP cells; Table 34; read-out: VCaP Dmax (%)): > 71%
Compound: Cc1ncsc1-c1ccc(CNC(=O)[C@@H]2C[C@@H](O)CN2C(=O)[C@@H](NC(=O)CO[C@@H](C)c2ccc(Oc3ccc(C(=O)N[C@H]4C(C)(C)[C@H](Oc5ccc(C#N)c(Cl)c5)C4(C)C)cc3)cc2)C(C)(C)C)cc1 [Example 406]

Compound: Cc1ncoc1-c1ccc(CNC(=O)[C@@H]2C[C@@H](O)CN2C(=O)[C@@H](NC(=O)COCCCOCCCCOc2ccc(N3C(=S)N(c4ccc(C#N)c(Cl)c4)C(=O)C3(C)C)cc2)C(C)C)cc1 [Example 39]
Dmax (VCaP, read-out: VCaP Dmax (%)): 26 to 50% | DC50 [2]: < 0.05 µM

DC50 [1]: < 0.05 µM | Dmax [5]: 26 to 50%
Compound: Cc1ncsc1-c1ccc([C@@H](NC(=O)[C@@H]2C[C@@H](O)CN2C(=O)C(NC(=O)COCCN2CCN(c3ccc(C(=O)N[C@H]4C(C)(C)[C@H](Oc5ccc(C#N)c(C(F)(F)F)c5)C4(C)C)cn3)CC2)C(C)(C)C)C2COC2)cc1 (stereo partly drawn) [Example 705, N-((1r,3r)-3-(4-cyano-3-(trifluoromethyl)phenoxy)-2,2,4,4-tetramethylcyclobutyl)-6-(4-(2-(2-(((S)-1-((2S,4R)-4-hydroxy-2-(((S)-(4-(4-methylthiazol-5-yl)phenyl)(oxetan-3-yl)methyl)carbamoyl)pyrrolidin-1-yl)-3,3-dimethyl-1-oxobutan-2-yl)amino)-2-oxoethoxy)ethyl)pipera-zin-1-yl)nicotinamide]

Compound: CC(C)(C)[C@H](NC(=O)COCCCCOc1ccc(-c2ccc(N3C(=S)N(c4ccc(C#N)c(Cl)c4F)C(=O)C3(C)C)cc2)cc1)C(=O)N1C[C@H](O)C[C@H]1C(=O)NCc1ccc(-c2cnco2)cc1 [Example 123, (2S,4R)-1-[(2S)-2-{2-[4-(4-{4-[3-(3-chloro-4-cyano-2-fluorophenyl)-5,5-dimethyl-4-oxo-2-sulfanylideneimidazolidin-1-yl]phenyl}phenoxy)butoxy]acetamido}-3,3-dimethylbutanoyl]-4-hydroxy-N-{[4-(1,3-oxazol-5-yl)phenyl]methyl}pyrrolidine-2-carboxamide]
Dmax (VCaP, read-out: VCaP Dmax (%)): > 71% | DC50 (read-out: VCaP DC50; concentration that caused 50% Androgen Receptor degradation, VCaP cells (Table 32)): < 0.05 µM

Compound: COc1cc(N2C(=O)C(C)(C)N(c3ccc(-c4ccc(OCCCCOCC(=O)N[C@H](C(=O)N5C[C@H](O)C[C@H]5C(=O)NCc5ccc(-c6ocnc6C)cc5)C(C)(C)C)cc4)cc3)C2=S)ccc1C#N [Example 115, (2S,4R)-1-[(2S)-2-{2-[4-(4-{4-[3-(4-cyano-3-methoxyphenyl)-5,5-dimethyl-4-oxo-2-sulfanylideneimidazolidin-1-yl]phenyl}phenoxy)butoxy]acetamido}-3,3-dimethylbutanoyl]-4-hydroxy-N-{[4-(4-methyl-1,3-oxazol-5-yl)phenyl]methyl}pyrrolidine-2-carboxamide]
Dmax (VCaP, highest percentage of Androgen Receptor degradation observed, VCaP cells (Table 32); read-out: VCaP Dmax (%)): > 71% | DC50 (concentration that caused 50% Androgen Receptor degradation, VCaP cells (Table 32); read-out: VCaP DC50): < 0.05 µM

Compound: Cc1ncsc1-c1ccc([C@H](C)NC(=O)[C@@H]2C[C@@H](O)CN2C(=O)[C@@H](NC(=O)CN[C@H]2C[C@H](N3CCN(c4ccc(C(=O)N[C@H]5C(C)(C)[C@H](Oc6ccc(C#N)c(Cl)c6)C5(C)C)cn4)CC3)C2)C(C)(C)C)cc1 [Example 860, N-((1r,3R)-3-(3-chloro-4-cyanophenoxy)-2,2,4,4-tetramethylcyclobutyl)-6-(4-((1S,3R)-3-((2-(((S)-1-((2S,4R)-4-hydroxy-2-(((S)-1-(4-(4-methylthiazol-5-yl)phenyl)ethyl)carbamoyl)pyrrolidin-1-yl)-3,3-dimethyl-1-oxobutan-2-yl)amino)-2-oxoethyl)amino)cyclobutyl)piperazin-1-yl)nicotinamide]
DC50 [1]: < 0.05 µM | Dmax (VCaP, read-out: VCaP Dmax (%)): 51 to 70%

DC50 [3]: < 0.05 µM | Dmax [4]: > 71%
Compound: Cc1ncsc1-c1ccc(CNC(=O)[C@@H]2C[C@@H](O)CN2C(=O)[C@@H](NC(=O)COCCCCCNc2ccc(C(=O)N[C@H]3C(C)(C)[C@H](Oc4ccc(C#N)c(Cl)c4)C3(C)C)cc2)C(C)(C)C)cn1 [Example 516]

DC50 [1]: < 0.05 µM | Dmax [5]: > 71%
Compound: Cc1ncsc1-c1ccc([C@H](CO)NC(=O)[C@@H]2C[C@@H](O)CN2C(=O)[C@@H](NC(=O)CN2CCN(CCCCc3ccc(C(=O)N[C@H]4C(C)(C)[C@H](Oc5ccc(C#N)c(Cl)c5)C4(C)C)cc3)CC2)C(C)(C)C)cc1 [Example 859, (2S,4R)-1-((S)-2-(2-(4-(4-(4-(((1r,3r)-3-(3-chloro-4-cyanophenoxy)-2,2,4,4-tetramethylcyclobutyl)carbamoyl)phenyl)butyl)piperazin-1-yl)acetamido)-3,3-dimethylbutanoyl)-4-hydroxy-N-((R)-2-hydroxy-1-(4-(4-methylthiazol-5-yl)phenyl)ethyl) pyrrolidine-2-carboxamide]

Compound: Cc1ncsc1-c1ccc([C@H](C)NC(=O)[C@@H]2C[C@@H](O)CN2C(=O)[C@H](C(C)C)n2cc(Oc3ccc(OC4CCC(Oc5ccc(N6C(=S)N(c7ccc(C#N)c(C(F)(F)F)c7)C(=O)C6(C)C)cc5)CC4)nc3)cn2)cc1 (stereo partly drawn) [Example 627, (2S,4R)-1-((S)-2-(4-((6-((4-(4-(3-(4-cyano-3-(trifluoromethyl)phenyl)-5,5-dimethyl-4-oxo-2-thioxoimidazolidin-1-yl)phenoxy)cyclohexyl)oxy)pyridin-3-yl)oxy)-1H-pyrazol-1-yl)-3-methylbutanoyl)-4-hydroxy-N-((S)-1-(4-(4-methylthiazol-5-yl)phenyl)ethyl)pyrrolidine-2-carboxamide]
Dmax (VCaP, read-out: VCaP Dmax (%)): 26 to 50% | DC50 (read-out: VCaP DC50; VCaP cells; Table 36): > 0.501 µM

— patent US11427548B2 (Arvinas Operations, Inc., priority 2015, dated 2022)
